Tests used:
[1] = Case XXVIII: carcinoma of the ovary, 40 kg; 120-200 mg LASIX intravenously
[2] = following intravenous administration; cited from earlier work
[3] = topical application to scalp, hair growth; assay type: in vivo, human; conditions: Case XXX: balding patient; topically to scalp
Protocol: This patient was diagnosed in January, 1990. A gastric resection and colonic replacement of oesophagus (for swallowing) was performed. They had also developed an intraperitoneal tumor. They were given chemotherapy and lost their hair. […] Dr. Falk saw this patient on Jun.
This balding patient applied the product "minoxidil" sold under the trademark "ROGAINE" topically to their scalp.

tumor = conditions: injected directly into a tumor
[4] = tested on: Grafts from ACI strain rats (black) to Lewis Strain rats (white); assay: standard rat skin graft rejection model; assay type: in vivo; conditions: hyaluronic acid added to cyclosporin
[5] = side effects / toxicity in human patients; assay type: in vivo; conditions: 10 to 1000 mg/70 kg person

In the case of `NS(=O)(=O)c1cc(C(=O)O)c(NCc2ccco2)cc1Cl` [LASIX, furosemide], the “total volume of urine over 48 hours” value [1] is given as 2,450 ml, the duration of action [2] is given as “about 2 hours” and the onset of diuresis [2] is given as at most 30 min.
For `Nc1cc(N2CCCCC2)nc(N)[n+]1[O-]` [ROGAINE, minoxidil], the hair growth [3] was “minimal or little hair growth”.
With `CCO` [ethyl alcohol] the “dispersion in tumor, sonographic (ultrasound) assessment” value (tumor) was “not dispersed throughout the tumor”.
For hyaluronic acid, the “cyclosporin induced graft survival” value [4] was “significantly increased cyclosporin induced graft survival” and the toxicity [5] was “no toxicity”.
